Laboratory results as given in patent EP0527720B1, “THERAPEUTIC AGENTS” (The Boots Company PLC, priority 1989, dated 1990).

Test system: heart failure patients
Assay: Earlier clinical studies of flosequinan 150 mg alone in heart failure patients
Type: in vivo, human
Conditions: heart failure patients receiving 150 mg doses of flosequinan
Text: An increase of heart rate is generally an undesirable effect in the treatment of heart failure since additional stress is placed on the failing heart. Furthermore, patients receiving such therapy may report adverse drug events associated with the increase in heart rate such as tachycardia and palpitations. These undesirable side effects of vasodilatory drug therapy effectively limit the maximum dose of the drug which can be safely administered.
This was particularly remarkable since no increase in heart rate (HR) was apparent. This implies that the increase in cardiac output (CO) evident after coadministration of captopril and flosequinan is due to an increase in stroke volume and not due, at least in part, to an increase in heart rate (HR) as expected.

Cn1cc([S+](C)[O-])c(=O)c2ccc(F)cc21 (stereo not shown) [flosequinan, 7-fluoro-1-methyl-3-methylsulphinyl-4-quinolone]
heart rate: an increase of heart rate occurs
